Reference: patent US20150056269A1, “LIPOSOME COMPRISING AT LEAST ONE CHOLESTEROL DERIVATIVE” (TROPHOS, priority 2011, published 2015)
In brackets after ≈: the same amount, converted by molar mass. Like-named read-outs stand apart in the source and are kept apart here.

Tests used:
[1] = Suspensions of EPC liposomes containing the derivatives of formula (I): concentration in liposomes and particle size; type: physicochemical; conditions: for Particle size (nm): EPC liposomes containing the compound; for Concentration of compound in mg/mL in the liposomes: EPC liposomes, after extrusion and solvent removal
Experimental: A solution of lipids at 250 mg/mL is prepared by dissolving defined quantities of EPC and the compound of formula (I) in tert-butanol or a mixture of tert-butanol and absolute ethanol (v/v). This lipid solution is mixed at a certain temperature with aqueous buffer in order to obtain a final concentration of solvent of 15 to 17% and of product of formula (I) of […].
The large multilamellar vesicles are then extruded at a fixed temperature through 3 polycarbonate filters by 10 consecutive passes. The non encapsulated compound of formula (I) is removed on the filters.
The solvent is eliminated by filtration on membrane by washing with buffer in order to achieve a percentage of final solvent of the order of 0.4%.

[2] = Maximum solubility of the compounds of formula (I) in water and different solvents; type: physicochemical; conditions: for solubility: read-out: Maximum solubility (concentration)
Experimental: The maximum solubility of the compounds of formula (I) was tested in water and different solvents: […]

[3] = Liposome based on egg phospholipids
[4] = liposome based on egg phospholipids, oil or lipid

CC(C)CCCC(C)C1CCC2C3CCC(=NO)C(C)(CCCO)C3CCC12C (centres unmarked) [Compound 1, 3-hydroxy-3,5-seco-4-norcholestan-5-one oxime]
Particle size (nm) [1]: 81.4 nm
Concentration of compound in mg/mL in the liposomes [1]: 8.1 mg/mL
Maximum solubility (concentration) ([2]; (2-hydroxypropyl)-beta-cyclodextrin, 30% PBS buffer): 700 µg/mL
Maximum solubility (concentration) ([2]; Intralipid 10): 1000 µg/mL
Maximum solubility (concentration) ([2]; Intralipid 10/Solutol HS15/ethanol 92/3/5): 5000 µg/mL
Maximum solubility (concentration) [2, 3]: 30000 µg/mL
Maximum solubility (concentration) ([2]; Soya oil): 6000 µg/mL
Maximum solubility (concentration) ([2]; Water): 1 µg/mL

CC(C)CCCC(C)C1CCC2C3CCC(=NO)C(C)(CCC(C)(C)O)C3CCC12C (centres unmarked) [Compound 2, 3,3-dimethyl-3-hydroxy-3,5-seco-4-norcholestan-5-one oxime]
Particle size (nm) [1]: 79.5 nm
Concentration of compound in mg/mL in the liposomes [1]: 9.2 mg/mL

CC(C)CCC[C@@H](C)[C@H]1CC[C@H]2[C@@H]3CCC4=CC(=NO)CC[C@]4(C)[C@H]3CC[C@]12C [Compound 3, cholest-4-en-3-one oxime]
Particle size (nm) [1]: 88.9 nm
Concentration of compound in mg/mL in the liposomes [1]: 12.4 mg/mL
solubility [2, 4]: 12400 µg/mL (≈ 31000 µM)
solubility ([2]; water): 0.1 µg/mL (≈ 0.25 µM)

CC(C)=CCC[C@@H](C)[C@H]1CC[C@H]2[C@@H]3CCC4=CC(=NO)CC[C@]4(C)[C@H]3CC[C@]12C [Compound 4, cholest-4,24-dien-3-one oxime]
Particle size (nm) [1]: 80.7 nm
Concentration of compound in mg/mL in the liposomes [1]: 14.5 mg/mL
solubility ([2]; Intralipid 10, oil or lipid): 340 µg/mL (≈ 855 µM)
solubility [2, 4]: 14500 µg/mL (≈ 36500 µM)
solubility ([2]; water): 0.1 µg/mL (≈ 0.251 µM)

CC(C)CCC[C@@H](C)[C@H]1CC[C@H]2[C@@H]3CCC4=C(F)C(=NO)CC[C@]4(C)[C@H]3CC[C@]12C [Compound 5, 4-fluoro-cholest-4-en-3-one oxime]
Particle size (nm) [1]: 79.1 nm
Concentration of compound in mg/mL in the liposomes [1]: 3.6 mg/mL

CCC[C@@]1(C)C(=NO)CC[C@H]2[C@@H]3CC[C@H]([C@H](C)CCCC(C)C)[C@@]3(C)CC[C@@H]21 [Compound 6, 3,5-seco-4-norcholestan-5-one oxime]
Particle size (nm) [1]: 84.7 nm
Concentration of compound in mg/mL in the liposomes [1]: 8.2 mg/mL
Maximum solubility (concentration) ([2]; Intralipid 10): 400 µg/mL
Maximum solubility (concentration) [2, 3]: 8200 µg/mL
Maximum solubility (concentration) ([2]; Water): 0.1 µg/mL

CC(C)CCC[C@@H](C)[C@H]1CC[C@H]2[C@@H]3CCC4=CC(=O)CC[C@]4(C)[C@H]3CC[C@]12C [Compound 7, cholest-4-en-3-one]
Concentration of compound in mg/mL in the liposomes [1]: 12.1 mg/mL

CC(C)CCCC(C)C1CCC2C3CCC(=O)C(C)(CCCO)C3CCC12C (centres unmarked) [Compound 8, 3-hydroxy-3,5-seco-4-norcholestan-5-one]
Concentration of compound in mg/mL in the liposomes [1]: 11.4 mg/mL

CC(C)=CCC[C@@H](C)[C@H]1CC[C@H]2[C@@H]3CCC4=CC(=O)CC[C@]4(C)[C@H]3CC[C@]12C [Compound 9, cholest-4,24-dien-3-one]
Concentration of compound in mg/mL in the liposomes [1]: 10.1 mg/mL
